Experimental data as given in PubChem BioAssay AID743394 (Broad Institute, 2014).
Activity calls are given as the source filed them.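 The calls were made as follows: active = 40% activation versus positive control reached by fitted dose-response curve at or below highest valid tested dose; inconclusive = poor fit quality, or flat fit with activation between 30% and 70%; inactive = the rest.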

Assay: Xi-linked GFP reactivating small molecules – imaging, 68-5-11 mouse fibroblasts, cherry-pick, dose response (AID 743394);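 also: sensitizer 5-aza-dC present in the wells at 0.5 mM final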
Conditions: 68-5-11 mouse fibroblast XiGFP reporter, % GFP-positive imaging, 3 d, at 19.5 µM (top of the series)
[1] = cells co-treated with 5-aza-dC sensitizer, scaled: neutral wells 0, ellipticine wells 100

Compound | activation [1] | activation
Cn1c(=O)c2[nH]c(-c3ccc(S(=O)(=O)O)cc3)nc2n(C)c1=O | 0.001% (inactive) | 
O=C(Nc1cccc(S(=O)(=O)NC2=NCCC2)c1)C1CC(=O)N(c2ccc3c(c2)OCCO3)C1 (stereo not given) | 0.339% (inactive) | 
Cc1nn(-c2ccccc2)c(N)c1N=O | -0.053% (inactive) | 
O=C(CC1C(=O)Nc2ccccc2N1CC(=O)N1CCCC1)Nc1ccc(Br)cc1 (stereo not given) | -0.001% (inactive) | 
Cn1c(=N)n(CC(=O)c2ccccc2)c2ccccc21 | 0.105% (inactive) | 
N/C(=N\OC(=O)C12CC3CC(CC(C3)C1)C2)c1ccncc1 | 0.008% (inactive) | 
Cc1nnc(SCc2cc(=O)oc3ccc4ccccc4c23)n1Cc1ccccc1 | -0.027% (inactive) | 
CC(O)(c1ccccc1)c1nc(-c2ccncc2)cs1 (stereo not given) | 0.105% (inactive) | 
O=C(O)c1ccc(COc2ccccc2C=C2C(=O)c3ccccc3C2=O)cc1 | 0.163% (inactive) | 
COc1ccccc1/C=C/C(=O)OCCCN(C)C | 0.018% (inactive) | 
CC(C)C#Cc1ccc([C@@H]2[C@@H](CO)N3C(=O)CN(C(=O)c4ccc5c(c4)OCO5)C[C@H]23)cc1 | 0.09% (inactive) | 
Cc1ccc(S(=O)(=O)c2ccc([N+](=O)[O-])cn2)cc1 | -0.05% (inactive) | 
O=c1[nH]c(=O)n(CCC2=CCCCC2)c(O)c1/C=N/Nc1ccccc1 |  | -0.002% (inactive)
COc1ccc(N2C(=O)C3CCCN3C2c2cccc(OC)c2)cc1 (stereo not given) | 0.02% (inactive) | 
Cc1ccc(S(=O)(=O)Nc2ccc3c(c2)C(=O)N([C@@H](C)CO)C[C@@H](C)[C@@H](CN(C)Cc2ccc(C(=O)Nc4ccccc4N)cc2)O3)cc1 | 1.51% (inactive) | 
Cc1ccc(Cn2ccsc2=NC(=O)CCl)cc1 | -0.035% (inactive) | 
COc1cc(CNc2nc3ccccc3n2C)cc(OC)c1OC | 0.013% (inactive) | 
COc1ccc(C2=NOC3(CC(=O)N(c4ccc(F)cc4)C3=O)C2)cc1 (stereo not given) | 0.015% (inactive) | 
Cc1nn(-c2ccccc2)c(C)c1N | 0.313% (inactive) | 
O=C(Nc1ccccc1N1CCCCC1)c1cnccn1 | -0.052% (inactive) | 
CC(C)(C=O)C1=CC(=O)c2ccccc2C1=O | -0.07% (inactive) | 
COCCCn1c(N)c(C(=O)Nc2ccccc2)c2nc3ccccc3nc21 |  | -0.127% (inactive)
Clc1ccc(-c2nc(-c3ccncc3)no2)c(Cl)c1 | -0.034% (inactive) | 

Compound | activation [1] | activation
O=c1c2ccccc2nnn1Cc1ccc2ccccc2c1 | -0.047% (inactive) | 
Oc1c(C(c2ccccc2Cl)N2CCCC2)ccc2cccnc12 (stereo not given) | -0.035% (inactive) | 
COc1ccc(/C=C\c2onc(C)c2S(=O)(=O)N2CCC(C(=O)NCc3ccco3)CC2)cc1 | 0.355% (inactive) | 
CCOC(=O)N1CCN(C(=O)Cn2ccc3c(OC)cccc3c2=O)CC1 | 0.07% (inactive) | 
C[C@@H]1CCCCO[C@@H](CN(C)C(=O)Nc2ccc(C(F)(F)F)cc2)[C@@H](C)CN([C@H](C)CO)C(=O)c2cc(NS(=O)(=O)c3ccc(F)cc3)ccc2O1 | -0.031% (inactive) | 
CCN(CC)CCCNC1=C(Cl)C(=O)c2ccccc2C1=O | -0.032% (inactive) | 
CC(=O)c1ccc2c(c1)OCCOCCOCCOCCOCCO2 | -0.021% (inactive) | 
Cc1ccc(NC(=O)c2ccc(=O)[nH]c2)cc1S(=O)(=O)N1CCCCCC1 | 0.105% (inactive) | 
COc1ccccc1-c1ccc(/C=N/O)o1 | -0.003% (inactive) | 
Cc1cccc(C(=O)NCc2ccc(S(N)(=O)=O)cc2)c1[N+](=O)[O-] | 0.077% (inactive) | 
CCOc1ccc(C(Nc2cccnc2)c2cc(Cl)c3cccnc3c2O)cc1 (stereo not given) | 8.68% (inactive) | 
O=[N+]([O-])c1ccc(Sc2nnnn2-c2ccccc2)nc1 | -0.121% (inactive) | 
O=C(O)c1ccccc1CSc1nc2ccccc2n1Cc1ccccc1C(=O)O | 0.715% (inactive) | 
COc1ccc(S(=O)(=O)N(C)C[C@H]2OCCCC[C@@H](C)Oc3ccc(NC(=O)NC(C)C)cc3C(=O)N([C@@H](C)CO)C[C@H]2C)cc1 | -0.013% (inactive) | 
O=C(c1nc(SCc2ccc([N+](=O)[O-])cc2)n2ccccc12)C(F)(F)F | 0.007% (inactive) | 
COc1cc(/C=C(\C#N)c2nc3ccccc3o2)ccc1O | 1.85% (inactive) | 
CC1=NN(c2ccc(C)c(C)c2)C(=O)/C1=C\C=C\c1ccc([N+](=O)[O-])o1 | -0.033% (inactive) | 
c1ccc(CCNc2nc(-c3ccccn3)nc3ccccc23)cc1 | -0.035% (inactive) | 
CC(C)N1CCc2c(sc(NC(=O)c3cc4cc([N+](=O)[O-])ccc4s3)c2C(N)=O)C1 | 7.43% (inactive) | 
CCOC(=O)CSc1nnc(CCCCCN2C(=O)c3cccc4cccc(c34)C2=O)o1 | 0.013% (inactive) | 
C=CCn1c(SCC(=O)N(CC)C2CCS(=O)(=O)C2)nc2sc3c(c2c1=O)CCC3 (stereo not given) | -0.061% (inactive) | 
COC(=O)c1ccc(NC(=O)c2nc(S(=O)(=O)Cc3cccc(C)c3)ncc2Cl)cc1 | -0.008% (inactive) | 
O=C(NC1=NN(c2ccccc2)CC1)Nc1ccccc1F | -0.003% (inactive) | 

Compound | activation [1] | activation
COc1ccc(-n2c(=O)n(Cc3ccccc3)c(=O)c3[nH]cnc32)cc1 | -0.053% (inactive) | 
NNC(=O)/C(=C\c1ccc(Br)cc1)NC(=O)c1cccs1 | -0.053% (inactive) | 
COc1ccc(NC(=O)Nc2ccc3c(c2)C(=O)N([C@@H](C)CO)C[C@H](C)[C@@H](CN(C)S(=O)(=O)c2ccc(OC)cc2)O3)cc1 | 0.014% (inactive) | 
COc1ccc2c3c(n(C)c2c1)[C@H](CO)N(Cc1ccccc1F)CC31CCN(CC2CC2)CC1 | 0.046% (inactive) | 
CC(C)(C)NC(=O)C(c1c[nH]c2ccccc12)N(C(=O)Cn1nnc(-c2ccc(Cl)cc2)n1)c1ccccc1F (stereo not given) | 0.104% (inactive) | 
O=C(N/N=C/c1ccc(Br)s1)c1ccc([N+](=O)[O-])cc1 | 1.59% (inactive) | 
COc1ccccc1NC(=S)N(CCCN1CCOCC1)Cc1cccs1 | -0.076% (inactive) | 
O=C(c1cccc2ccccc12)C1CCCN(Cc2ccon2)C1 (stereo not given) |  | 0.107% (inactive)
O=C(CNC(=O)c1ccccc1F)OCc1nc2ccccc2s1 | -0.127% (inactive) | 
COC(=O)Nc1ccc(S(=O)(=O)N2CCCC(C(=O)N3CCN(C)CC3)C2)cc1 (stereo not given) | 0.221% (inactive) | 
COC(=O)c1ccc(CNC(=O)COC(=O)c2cc(Cl)ccc2O)cc1 | 0.385% (inactive) | 
O=C(C[C@@H]1C[C@@H]2c3cc(NC(=O)C4CCC4)ccc3O[C@@H]2[C@@H](CO)O1)NCc1ccc(Cl)cc1 | 0.899% (inactive) | 
O=C(NCCO)/C(=C/c1ccco1)NC(=O)c1ccco1 | -0.047% (inactive) | 
O=C(NCc1ccccc1)c1ccccc1Br | 0.035% (inactive) | 
COc1ccccc1OCCOc1ccc(/C=C2\C(=N)N3N=C(S(C)(=O)=O)SC3=NC2=O)cc1 | 0.042% (inactive) | 
Cc1cccc(NC(=O)Cn2cnc3c(oc4nc5c(cc43)COC(C)(C)C5)c2=O)c1 | 4.42% (inactive) | 
O=C1C2C3C=CC(CNS(=O)(=O)c4ccccc4[N+](=O)[O-])(O3)C2C(=O)N1c1ccccc1 (stereo not given) | 0.059% (inactive) | 
O=C(/C=C/Sc1ccc(C(F)(F)F)cn1)c1ccccc1 | 0.096% (inactive) | 
CC(=NNC(=S)Nc1cccc(Cl)c1)c1ccccn1 | -0.035% (inactive) | 
C(CCCN1CCCCC1)CCN1CCCCC1 | 0.047% (inactive) | 
CC(=O)c1ccc(NC(=O)COC(=O)CCc2ccc(S(=O)(=O)N3CCOCC3)cc2)cc1 | 0.332% (inactive) | 
CCCCn1nnnc1C(c1ccccc1)N1CCN(c2ccc(C)cc2)CC1 (stereo not given) | 0.03% (inactive) | 
CC(OCCN(C)C)C(=O)C12CC3CC(CC(C3)C1)C2 (stereo not given) | 0.008% (inactive) | 

Compound | activation [1] | activation
Cc1ccc(Cn2cc(/C=N/Nc3ccc([N+](=O)[O-])cn3)c3ccccc32)cc1 | 1.53% (inactive) | 
O=C1c2ccccc2C(=O)C1c1ccccc1 | -0.024% (inactive) | 
[N-]=[N+]=CC(=O)C(O)(c1ccccc1)C(Cl)c1ccccc1 (stereo not given) | 0.034% (inactive) | 
COc1ccccc1/C=C/C(=O)OCC(=O)NC(=O)NC1CCCC1 | -0.012% (inactive) | 
CCC1Oc2ccc(C)cc2N(CC(=O)N2CCCC2)C1=O (stereo not given) | 0.113% (inactive) | 
CCOC(=O)c1sc2nc(CSc3ccccc3)[nH]c(=O)c2c1C | 0.303% (inactive) | 
Nc1c(C(=O)O)cnn1-c1ccc([N+](=O)[O-])cc1 | 0.022% (inactive) | 
COc1cccc(C(=O)c2c(-c3ccccc3)ncc3cc(OC)c(OC)cc23)c1 | 0.006% (inactive) | 
Cc1nn2c(NCCCN(C)C)c3c(nc2c1-c1ccccc1)CCCC3 | 0.079% (inactive) | 
O=C(CCC(=O)Nc1cccnc1)Nc1cccnc1 | 0.049% (inactive) | 
COc1ccc2c3c([nH]c2c1)[C@H](CO)N(C(=O)c1cccnc1)CC31CCN(Cc2ccccc2)CC1 | 0.094% (inactive) | 
NC(=S)Nc1ccc(Cl)cc1Cl | -0.001% (inactive) | 
COC(C(=O)NCc1ccc(C)cc1)c1ccccc1 (stereo not given) | 0.114% (inactive) | 
CN(C)c1ccc(NC2=C(Cl)C(=O)c3ccccc3C2=O)cc1 | -0.053% (inactive) | 
CC(C)Oc1ccc(/C(O)=C2/C(=O)C(=O)N(CCN(C)C)C2c2cccs2)cc1 (stereo not given) | 0.063% (inactive) | 
C[C@@H]1CN([C@@H](C)CO)C(=O)c2cc(NS(=O)(=O)c3cn(C)cn3)ccc2O[C@@H](C)CCCCO[C@H]1CN(C)C(=O)c1ccccc1 | 0.016% (inactive) | 
O=C1CCCC(O)=C1Sc1cc(Cl)c(Cl)cc1Cl | 0.118% (inactive) | 
C[C@@H]1ON(C)[C@H]2C[C@H]3c4cc(-c5cccc(F)c5)ccc4CCN3C(=O)[C@@H]12 | 0.187% (inactive) | 
O=C(CCl)N=c1sccn1Cc1cccc2ccccc12 | -0.053% (inactive) | 
Cc1ccc(-c2csc(NC(=O)c3cccc([N+](=O)[O-])c3C(=O)O)n2)cc1 | -0.047% (inactive) | 
CO[C@@H]1CN(C)C(=O)c2cc(NS(C)(=O)=O)ccc2OC[C@H](C)N(C(=O)C2CCCC2)C[C@H]1C | 0.988% (inactive) | 
